According to US20230111066A1, “PIGMENTED SPOT FORMATION INHIBITOR, INCREASED MELANOSOME PHAGOCYTOSIS INHIBITOR, AND EPIDERMAL DIFFERENTIATION POTENCY IMPROVER” (SSP CO., LTD., priority 2021, published 2023):

What was measured:
[1] = system: normal human epidermal keratinocytes (NHEKs); test: Fluorescent bead (pseudo-melanosome) phagocytosis enhanced by UVB irradiation; assay type: cell-based
Description: Test Example 1: Enhancement of Fluorescent Bead Phagocytosis by UVB Irradiation and Enhanced Phagocytosis-Inhibiting Effect by VB6 A culture medium (HuMedia-KG2: manufactured by Kurabo Industries Ltd.) was added to a 96-well plate at 0.1 mL/well, and normal human epidermal keratinocytes (NHEKs) were seeded at a density of 2.5×10^4 cells/well, followed by incubation for 24 hours. These cells were divided into first to fourth groups. In the first group (vitamin B6+UVB group), the medium was replaced by a pyridoxine-containing culture medium (pyridoxine: 1 mM), followed by culturing for 24 hours, and irradiation with 20 mJ/cm^2 of UVB using a UVB broadband lamp manufactured by Koninklijke Philips N.V. was performed, followed by culturing for 24 hours. In the second group (vitamin B6 group), the medium was replaced by a pyridoxine-containing culture medium (pyridoxine: 1 mM), followed by culturing for 24 hours. […] Subsequently, the NHEKs of each group were allowed to incorporate fluorescent beads (manufactured by Thermo Fisher Scientific Inc.) as pseudo-melanosomes for 4 hours, and the uptake amount of the fluorescent beads per unit protein was then measured with a microplate reader (manufactured by Tecan Group Ltd.).

[2] = system: normal human epidermal keratinocytes (NHEKs); test: Fluorescent bead phagocytosis enhanced by BSO treatment; assay type: cell-based; settings: 50 μM BSO, pyridoxine 0.25 mM, 0.5 mM, or 1 mM, FIG. 2
Description: Test Example 2: Enhancement of Fluorescent Bead Phagocytosis by BSO Treatment and Enhanced Phagocytosis-Inhibiting Effect by VB6 A culture medium (HuMedia-KG2) was added to a 96-well plate at 0.1 mL/well, and normal human epidermal keratinocytes (NHEKs) were seeded at a density of 2.5×10^4 cells/well, followed by incubation for 24 hours. These cells were divided into first to fourth groups. In the first group (vitamin B6+BSO group), treatment with 50 μM of buthionine sulfoximine (BSO: manufactured by Sigma-Aldrich Co. LLC) was performed for 24 hours, and the medium was then replaced by a pyridoxine-containing culture medium (pyridoxine: 0.25 mM, 0.5 mM, or 1 mM), followed by culturing for 24 hours. In the second group (vitamin B6 group), the medium was replaced by a pyridoxine-containing culture medium (pyridoxine: 0.25 mM, 0.5 mM, or 1 mM), followed by culturing for 24 hours. In the third group (BSO group), treatment with 50 μM of buthionine sulfoximine (BSO) was performed for 24 hours, followed by culturing in a KG2 culture medium for 24 hours. […] Subsequently, the NHEKs of each group were allowed to incorporate fluorescent beads (manufactured by Thermo Fisher Scientific Inc.) for 4 hours, and the uptake amount of the fluorescent beads per unit protein was then measured with a microplate reader (manufactured by Tecan Group Ltd.).

[3] = system: gene expression levels of keratin-10, involucrin, and loricrin; test: Degradation of epidermal differentiation potency by fluorescent bead phagocytosis, real-time PCR; assay type: cell-based, human
Description: Test Example 3: Effect of Improving Degradation of Epidermal Differentiation Potency by Fluorescent Bead Phagocytosis A culture medium (HuMedia-KG2) was added to a 96-well plate at 0.1 mL/well, and normal human epidermal keratinocytes (NHEKs) were seeded at a density of 2.5×10^4 cells/well, followed by incubation for 24 hours. These cells were divided into first to third groups. In the first group (vitamin B6+bead group), the medium was replaced by a pyridoxine-containing culture medium (pyridoxine: 1 mM), followed by culturing for 24 hours. The NHEKs were allowed to incorporate fluorescent beads (manufactured by Thermo Fisher Scientific Inc.) as pseudo-melanosomes for 4 hours, followed by further culturing in a fresh culture medium (HuMedia-KG2) for 20 hours. In the second group (bead group), after culturing for 24 hours, the NHEKs were allowed to incorporate fluorescent beads (manufactured by Thermo Fisher Scientific Inc.) as pseudo-melanosomes for 4 hours, followed by further culturing in a fresh culture medium (HuMedia-KG2) for 20 hours. In the third group (control group), the NHEKs were directly cultured for 48 hours. Subsequently, total RNA was extracted from the NHEKs of each group, and cDNA was produced by reverse transcription. Real-time PCR was performed using this cDNA as a template to detect gene expression levels of keratin-10, involucrin, and loricrin.

Molecule	effect on increase in melanosome phagocytosis (uptake amount of fluorescent beads per unit protein) ([1]; NHEKs, pyridoxine 1 mM, 20 mJ/cm^2 UVB, FIG. 1)	effect on increase in melanosome phagocytosis (uptake amount of fluorescent beads per unit protein) [2]	effect on epidermal differentiation potency (gene expression of keratin-10, involucrin, loricrin) ([3]; NHEKs, pyridoxine 1 mM, fluorescent beads 4 hours, FIG. 3)	effect on increase in melanosome phagocytosis, summary statement on the Examples ([1]; general statement covering Test Examples 1 and 2)	effect on epidermal differentiation potency, summary statement on the Examples ([3]; general statement covering Test Example 3)
Cc1ncc(CO)c(CO)c1O [pyridoxine]	inhibiting an increase in melanosome phagocytosis	inhibiting an increase in melanosome phagocytosis	improving epidermal differentiation potency	–	–
vitamin B6	–	–	–	excellent effects of inhibiting an increase in melanosome phagocytosis	improving epidermal differentiation potency
